{"source": "patent US20260022142A1", "about": "“MACROCYCLIC IMMUNOMODULATORS” (Bristol-Myers Squibb Company, priority 2022, published 2026)", "biological_target": "T1, PD-1/PD-L1 interaction (PE-labeled human PD-L1-Ig binding to Jurkat cell line over-expressing human PD-1) (Homo sapiens, UniProt Q15116)", "T1 construct": "expressed in transfected cells; host or cells: Jurkat", "T1 sequence (Q15116 25-288)": "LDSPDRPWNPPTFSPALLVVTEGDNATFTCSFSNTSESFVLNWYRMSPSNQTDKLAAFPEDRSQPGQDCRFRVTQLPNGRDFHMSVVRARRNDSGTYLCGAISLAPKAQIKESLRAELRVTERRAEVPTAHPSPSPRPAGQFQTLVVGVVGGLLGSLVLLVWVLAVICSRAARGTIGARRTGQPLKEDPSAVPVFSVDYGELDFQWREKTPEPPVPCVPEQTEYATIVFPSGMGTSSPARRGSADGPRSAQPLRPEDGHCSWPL", "assay": "Jurkat-PD-1 Cell Binding High-Content Screening Assay (CBA)", "type": "cell-based", "conditions": "Jurkat cell line over-expressing human PD-1; PE-labeled PD-L1-Ig 20 nM final; read-out: Jurkat hPD1-PDL1 IC50", "in_short": "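Jurkat-hPD-1 cells, DMEM/10% FCS; cpd 2 h 37° C; PE-PD-L1-Ig 20 nM final, 1 h; 4% PFA fix + Hoechst 33342, 3× dPBS wash; high-content imaging read-out.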", "note": "Bridge positions count the residues as written; N and C are the ends. Square brackets hold non-standard residues; d marks the D form. Peptide text beside a SMILES is read from it. * marks the point of attachment. Bip = N[C@@H](Cc1ccc(-c2ccccc2)cc1)C(=O)O; Phe(3-Me) = Cc1cccc(C[C@H](N)C(=O)O)c1; 4Pal = N[C@@H](Cc1ccncc1)C(=O)O; Cha = N[C@@H](CC1CCCCC1)C(=O)O; dDab = NCC[C@@H](N)C(=O)O; Carboxymethyl = O=C(O)C*; Orn = NCCC[C@H](N)C(=O)O; Aun = NCCCCCCCCCCC(=O)O; Dab = NCC[C@H](N)C(=O)O; Dap = NC[C@H](N)C(=O)O; AEEA = NCCOCCOCC(=O)O", "data": [{"smiles": "Cc1cccc(C[C@@H]2NC(=O)[C@H](CC(=O)O)NC(=O)[C@H](Cc3ccc(OCC(=O)O)cc3)NC(=O)[C@H](Cc3ccc(OCC(=O)O)cc3)NC(=O)CSC[C@@H](C(=O)NCC(=O)N[C@@H](CCC(=O)O)C(=O)NCC(=O)NCCCCCCCCCCC(=O)O)NC(=O)[C@H](CO)NC(=O)[C@H](C(C)C)NC(=O)[C@H](CC(C)C)NC(=O)[C@H](CCN)NC(=O)[C@@H](CC(C)C)NC(=O)[C@H](CCCN)NC(=O)[C@H](C(C)C)NC(=O)[C@H](Cc3ccc(-c4ccccc4)cc3)NC(=O)[C@H](CC(C)C)NC2=O)c1", "note": "[Compound 1138] ({CH2CO}-Y(Carboxymethyl)Y(Carboxymethyl)D[Phe(3-Me)]L[Bip]V[Orn][dL][Dab]LVSCGEG[Aun]-OH; thioether N-14)", "values": [{"measurement": "IC50", "result": 0.0189, "unit": "µM"}]}, {"smiles": "Cc1cccc(C[C@@H]2NC(=O)[C@H](CC(=O)O)NC(=O)[C@H](Cc3ccc(OCC(=O)O)cc3)NC(=O)[C@H](Cc3ccc(OCC(=O)O)cc3)NC(=O)CSC[C@@H](C(=O)NCC(=O)N[C@@H](CCC(=O)O)C(=O)NCCCCCCCCCCC(=O)O)NC(=O)[C@H](CO)NC(=O)[C@H](C(C)C)NC(=O)[C@H](CC(C)C)NC(=O)[C@H](CCN)NC(=O)[C@@H](CC(C)C)NC(=O)[C@H](CCCN)NC(=O)[C@H](C(C)C)NC(=O)[C@H](Cc3ccc(-c4ccccc4)cc3)NC(=O)[C@H](CC(C)C)NC2=O)c1", "note": "[Compound 1139] ({CH2CO}-Y(Carboxymethyl)Y(Carboxymethyl)D[Phe(3-Me)]L[Bip]V[Orn][dL][Dab]LVSCGE[Aun]-OH; thioether N-14)", "values": [{"measurement": "IC50", "result": 0.0113, "unit": "µM"}]}, {"smiles": "Cc1cccc(C[C@@H]2NC(=O)[C@H](CC(=O)O)NC(=O)[C@H](Cc3ccc(OCC(=O)O)cc3)NC(=O)[C@H](Cc3ccc(OCC(=O)O)cc3)NC(=O)CSC[C@@H](C(=O)N[C@@H](CCCN)C(=O)NCCCCCCCCCCC(=O)O)NC(=O)[C@H](CO)NC(=O)[C@H](C(C)C)NC(=O)[C@H](CC(C)C)NC(=O)[C@H](CCN)NC(=O)[C@@H](CC(C)C)NC(=O)[C@H](CCCN)NC(=O)[C@H](C(C)C)NC(=O)[C@H](Cc3ccc(-c4ccccc4)cc3)NC(=O)[C@@H](CC(C)C)NC2=O)c1", "note": "[Compound 1141] ({CH2CO}-Y(Carboxymethyl)Y(Carboxymethyl)D[Phe(3-Me)][dL][Bip]V[Orn][dL][Dab]LVSC[Orn][Aun]-OH; thioether N-14)", "values": [{"measurement": "IC50", "result": 0.041, "unit": "µM"}]}, {"smiles": "Cc1cccc(C[C@@H]2NC(=O)[C@H](CC(=O)O)NC(=O)[C@H](Cc3ccc(OCC(=O)O)cc3)NC(=O)[C@H](Cc3ccc(OCC(=O)O)cc3)NC(=O)CSC[C@@H](C(=O)N[C@@H](CCCCN)C(=O)NCCCCCCCCCCC(=O)O)NC(=O)[C@H](CO)NC(=O)[C@H](C(C)C)NC(=O)[C@H](CC(C)C)NC(=O)[C@H](CCN)NC(=O)[C@@H](CC(C)C)NC(=O)[C@H](CCCN)NC(=O)[C@H](C(C)C)NC(=O)[C@H](Cc3ccc(-c4ccccc4)cc3)NC(=O)[C@@H](CC(C)C)NC2=O)c1", "note": "[Compound 1142] ({CH2CO}-Y(Carboxymethyl)Y(Carboxymethyl)D[Phe(3-Me)][dL][Bip]V[Orn][dL][Dab]LVSCK[Aun]-OH; thioether N-14)", "values": [{"measurement": "IC50", "result": 0.0549, "unit": "µM"}]}, {"smiles": "Cc1cccc(C[C@@H]2NC(=O)[C@H](CC(=O)O)NC(=O)[C@H](Cc3ccc(OCC(=O)O)cc3)NC(=O)[C@H](Cc3ccc(OCC(=O)O)cc3)NC(=O)CSC[C@@H](C(=O)N[C@H](CCN)C(=O)NCCCCCCCCCCC(=O)O)NC(=O)[C@H](CO)NC(=O)[C@H](C(C)C)NC(=O)[C@H](CC(C)C)NC(=O)[C@H](CCN)NC(=O)[C@@H](CC(C)C)NC(=O)[C@H](CCCN)NC(=O)[C@H](C(C)C)NC(=O)[C@H](Cc3ccc(-c4ccccc4)cc3)NC(=O)[C@@H](CC(C)C)NC2=O)c1", "note": "[Compound 1145] ({CH2CO}-Y(Carboxymethyl)Y(Carboxymethyl)D[Phe(3-Me)][dL][Bip]V[Orn][dL][Dab]LVSC[dDab][Aun]-OH; thioether N-14)", "values": [{"measurement": "IC50", "result": 0.0261, "unit": "µM"}]}, {"smiles": "Cc1cccc(C[C@@H]2NC(=O)[C@H](CC(=O)O)NC(=O)[C@H](Cc3ccc(OCC(=O)O)cc3)NC(=O)[C@H](Cc3ccc(OCC(=O)O)cc3)NC(=O)CSC[C@@H](C(=O)NCCOCCOCC(=O)NCCCCCCCCCCC(=O)O)NC(=O)[C@H](CO)NC(=O)[C@H](C(C)C)NC(=O)[C@H](CC(C)C)NC(=O)[C@H](CCN)NC(=O)[C@@H](CC(C)C)NC(=O)[C@H](CCCN)NC(=O)[C@H](C(C)C)NC(=O)[C@H](Cc3ccc(-c4ccccc4)cc3)NC(=O)[C@@H](CC(C)C)NC2=O)c1", "note": "[Compound 1149] ({CH2CO}-Y(Carboxymethyl)Y(Carboxymethyl)D[Phe(3-Me)][dL][Bip]V[Orn][dL][Dab]LVSC[AEEA][Aun]-OH; thioether N-14)", "values": [{"measurement": "IC50", "result": 0.0197, "unit": "µM"}]}, {"smiles": "CC[C@H](C)[C@@H]1NC(=O)[C@H](Cc2ccc(-c3ccccc3)cc2)NC(=O)[C@H](C(C)C)NC(=O)[C@H](Cc2c[nH]c3ccccc23)NC(=O)[C@H](CC(=O)O)NC(=O)[C@H](Cc2ccc(OCC(=O)O)cc2)NC(=O)[C@H](Cc2ccncc2)NC(=O)CSC[C@@H](C(=O)NCCOCCOCC(=O)NCCCCCCCCCCC(=O)O)NC(=O)[C@H]([C@@H](C)O)NC(=O)[C@H](C(C)C)NC(=O)[C@H](CC(C)C)NC(=O)[C@H](CCN)NC(=O)[C@@H](CC(C)C)NC(=O)[C@H](CCCN)NC1=O", "note": "[Compound 1150] ({CH2CO}-[4Pal]Y(Carboxymethyl)DWV[Bip]I[Orn][dL][Dab]LVTC[AEEA][Aun]-OH; thioether N-14)", "values": [{"measurement": "IC50", "result": 0.0335, "unit": "µM"}]}, {"smiles": "CC[C@H](C)[C@@H]1NC(=O)[C@H](Cc2ccc(-c3ccccc3)cc2)NC(=O)[C@H](C(C)C)NC(=O)[C@H](Cc2c[nH]c3ccccc23)NC(=O)[C@H](CC(=O)O)NC(=O)[C@H](Cc2ccc(OCC(=O)O)cc2)NC(=O)[C@H](Cc2ccncc2)NC(=O)CSC[C@@H](C(=O)N[C@@H](CCCN)C(=O)NCCOCCOCC(=O)NCCCCCCCCCCC(=O)O)NC(=O)[C@H]([C@@H](C)O)NC(=O)[C@H](C(C)C)NC(=O)[C@H](CC(C)C)NC(=O)[C@H](CCN)NC(=O)[C@@H](CC(C)C)NC(=O)[C@H](CCCN)NC1=O", "note": "[Compound 1159] ({CH2CO}-[4Pal]Y(Carboxymethyl)DWV[Bip]I[Orn][dL][Dab]LVTC[Orn][AEEA][Aun]-OH; thioether N-14)", "values": [{"measurement": "IC50", "result": 0.0334, "unit": "µM"}]}, {"smiles": "CC[C@H](C)[C@@H]1NC(=O)[C@H](Cc2ccc(-c3ccccc3)cc2)NC(=O)[C@H](C(C)C)NC(=O)[C@H](Cc2c[nH]c3ccccc23)NC(=O)[C@H](CC(=O)O)NC(=O)[C@H](Cc2ccc(OCC(=O)O)cc2)NC(=O)[C@H](Cc2ccncc2)NC(=O)CSC[C@@H](C(=O)N[C@@H](CCCCN)C(=O)NCCOCCOCC(=O)NCCCCCCCCCCC(=O)O)NC(=O)[C@H]([C@@H](C)O)NC(=O)[C@H](C(C)C)NC(=O)[C@H](CC(C)C)NC(=O)[C@H](CCN)NC(=O)[C@@H](CC(C)C)NC(=O)[C@H](CCCN)NC1=O", "note": "[Compound 1160] ({CH2CO}-[4Pal]Y(Carboxymethyl)DWV[Bip]I[Orn][dL][Dab]LVTCK[AEEA][Aun]-OH; thioether N-14)", "values": [{"measurement": "IC50", "result": 0.021, "unit": "µM"}]}, {"smiles": "CC[C@H](C)[C@@H]1NC(=O)[C@H](Cc2ccc(-c3ccccc3)cc2)NC(=O)[C@H](C(C)C)NC(=O)[C@H](Cc2c[nH]c3ccccc23)NC(=O)[C@H](CC(=O)O)NC(=O)[C@H](Cc2ccc(OCC(=O)O)cc2)NC(=O)[C@H](Cc2ccncc2)NC(=O)CSC[C@@H](C(=O)N[C@@H](CCCNC(=N)N)C(=O)NCCOCCOCC(=O)NCCCCCCCCCCC(=O)O)NC(=O)[C@H]([C@@H](C)O)NC(=O)[C@H](C(C)C)NC(=O)[C@H](CC(C)C)NC(=O)[C@H](CCN)NC(=O)[C@@H](CC(C)C)NC(=O)[C@H](CCCN)NC1=O", "note": "[Compound 1161] ({CH2CO}-[4Pal]Y(Carboxymethyl)DWV[Bip]I[Orn][dL][Dab]LVTCR[AEEA][Aun]-OH; thioether N-14)", "values": [{"measurement": "IC50", "result": 0.0253, "unit": "µM"}]}, {"smiles": "Cc1cccc(C[C@@H]2NC(=O)[C@H](CC(=O)O)NC(=O)[C@H](Cc3ccncc3)NC(=O)[C@H](Cc3ccc(OCC(=O)O)cc3)NC(=O)CSC[C@@H](C(=O)NCCOCCOCC(=O)NCCCCCCCCCCC(=O)O)NC(=O)[C@H]([C@@H](C)O)NC(=O)[C@H](C(C)C)NC(=O)[C@H](CC3CCCCC3)NC(=O)[C@H](CCN)NC(=O)[C@@H](CC(C)C)NC(=O)[C@H](CCCN)NC(=O)[C@H](C(C)C)NC(=O)[C@H](Cc3ccc(-c4ccccc4)cc3)NC(=O)[C@H](C(C)C)NC2=O)c1", "note": "[Compound 1162] ({CH2CO}-Y(Carboxymethyl)[4Pal]D[Phe(3-Me)]V[Bip]V[Orn][dL][Dab][Cha]VTC[AEEA][Aun]-OH; thioether N-14)", "values": [{"measurement": "IC50", "result": 0.0208, "unit": "µM"}]}, {"smiles": "Cc1cccc(C[C@@H]2NC(=O)[C@H](CC(=O)O)NC(=O)[C@H](Cc3ccncc3)NC(=O)[C@H](Cc3ccc(OCC(=O)O)cc3)NC(=O)CSC[C@@H](C(=O)N[C@@H](CN)C(=O)NCCCCCCCCCCC(=O)O)NC(=O)[C@H]([C@@H](C)O)NC(=O)[C@H](C(C)C)NC(=O)[C@H](CC3CCCCC3)NC(=O)[C@H](CCN)NC(=O)[C@@H](CC(C)C)NC(=O)[C@H](CCCN)NC(=O)[C@H](C(C)C)NC(=O)[C@H](Cc3ccc(-c4ccccc4)cc3)NC(=O)[C@H](C(C)C)NC2=O)c1", "note": "[Compound 1163] ({CH2CO}-Y(Carboxymethyl)[4Pal]D[Phe(3-Me)]V[Bip]V[Orn][dL][Dab][Cha]VTC[Dap][Aun]-OH; thioether N-14)", "values": [{"measurement": "IC50", "result": 0.0551, "unit": "µM"}]}, {"smiles": "Cc1cccc(C[C@@H]2NC(=O)[C@H](CC(=O)O)NC(=O)[C@H](Cc3ccncc3)NC(=O)[C@H](Cc3ccc(OCC(=O)O)cc3)NC(=O)CSC[C@@H](C(=O)N[C@@H](CCN)C(=O)NCCCCCCCCCCC(=O)O)NC(=O)[C@H]([C@@H](C)O)NC(=O)[C@H](C(C)C)NC(=O)[C@H](CC3CCCCC3)NC(=O)[C@H](CCN)NC(=O)[C@@H](CC(C)C)NC(=O)[C@H](CCCN)NC(=O)[C@H](C(C)C)NC(=O)[C@H](Cc3ccc(-c4ccccc4)cc3)NC(=O)[C@H](C(C)C)NC2=O)c1", "note": "[Compound 1164] ({CH2CO}-Y(Carboxymethyl)[4Pal]D[Phe(3-Me)]V[Bip]V[Orn][dL][Dab][Cha]VTC[Dab][Aun]-OH; thioether N-14)", "values": [{"measurement": "IC50", "result": 0.122, "unit": "µM"}]}]}
